Test results: US12637435B2, “Nitrogen-containing heterocyclic compound or salt thereof, use thereof, and intermediate thereof” (FUJIFILM Corporation, priority 2020, dated 2026)

Key:
[1] = test system: human myeloid leukemia cell line HL60; assay: Cell growth test, HL60 (CellTiter-Glo); type: cell-based; settings: HL-60, 72 h, HL60 cells, 3 days, CellTiter-Glo luminescence, read-out: Cell growth inhibitory effect (GI50)
Procedure: The cell growth test was carried out using the human myeloid leukemia cell line HL60 (available from ATCC, CRL-240). As a culture medium of HL60 cells, RPMI 1640 (available from FUJIFILM Wako Pure Chemical Corporation, 189-02025) supplemented with 10% fetal bovine serum (available from Thermo Fisher Scientific, Inc., 10437-028), and 1% penicillin-streptomycin (10,000 U/mL, available from Thermo Fisher Scientific, Inc., 15140-122) was used. HL60 cells were seeded on a 384-well plate (available from Corning Inc., 4588) at a cell density of 1×10^3 cells/20 μL/well. After culturing overnight, 5 μL of the test compound having a predetermined concentration was added, and 3 days later, 25 μL of CellTiter-Glo (registered trademark) Luminescent Cell Viability Assay (available from Promega Corporation, G7573) was added, and then the amount of luminescence was measured using an EnVision plate reader (available from PerkinElmer, Inc.). Since the amount of luminescence is proportional to the intracellular concentration of adenosine triphosphate (ATP), the amount of luminescence was used as an indicator of the number of viable cells. The growth inhibitory concentration for each test compound concentration was calculated by the following expression.
(§1) The growth inhibition rate at each test compound concentration was determined, and the 50% growth inhibitory concentration [GI50 (nmol/L)] was calculated using XLfit. Growth inhibition rate (%)=(amount of luminescence in test compound-added well)/(amount of luminescence in DMSO-added well)×100
The abbreviations in the table have the following meanings. • A: GI50 value<100 nmol/L • B: 100 nmol/L≤GI50 value<1,000 nmol/L • C: 1,000 nmol/L≤GI50 value

recombinant human DHODH = target: T1, recombinant human DHODH (Homo sapiens, UniProt Q02127); assay: DHODH enzyme reaction inhibition test (DCIP-coupled assay); type: biochemical; settings: recombinant human DHODH 0.175 μg/mL, DCIP absorbance 600 nm, 50 minutes, pH 8.0; read-out: Enzyme reaction inhibitory effect (IC50)
T1 construct: DHODH, 31-395aa, Human, His tag, E. coli, ATGP1615; His tag; purchased ATGen Co. Ltd. ATGP1615; host or cells: E. coli
Procedure: The DHODH enzyme assay was carried out with reference to “Benjamin Bader, Wolfgang Knecht, Markus Fries, and Monika Loffler, Expression, Purification, and Characterization of Histidine-Tagged Rat and Human Flavoenzyme Dihydroorotate Dehydrogenase, Protein Expression and Purification, 1998, 13, 414-422.”
The DHODH activity was evaluated using an enzyme assay system that is coupled with an assay in which a blue coloring agent 2,6-dichlorophenolindophenol (DCIP, available from MP Biomedicals, LLC, MP150118) is quenched. Purified recombinant human DHODH (DHODH, 31-395aa, Human, His tag, E. coli, ATGP1615) was purchased from ATGen Co. Ltd. The enzyme assay was carried out in a 384-well plate using a buffer solution containing 100 mmol/L Hepes (available from Dojindo Laboratories, 342-01375), 400 mmol/L NaCl (available from FUJIFILM Wako Pure Chemical Corporation, 191-01665), 10% Glycerol (available from FUJIFILM Wako Pure Chemical Corporation, 075-00616), 0.05% Triton X-100 (available from Sigma-Aldrich Co., LLC, T8787-100ML), 0.2 mmol/L Ubiquinone-10 (available from FUJIFILM Wako Pure Chemical Corporation, 216-00761), 0.1 mmol/L DHO (L-dihydroorotic acid, available from Sigma-Aldrich Co., LLC, D7128), 0.5% DMSO (dimethylsulfoxide, available from FUJIFILM Wako Pure Chemical Corporation, 047-29353), 0.175 μg/mL DHODH, and 0.12 mmol/L DCIP and having a pH adjusted to 8.0 by adding 5 mol/L potassium hydroxide (available from FUJIFILM Wako Pure Chemical Corporation, 168-21815). A test compound with a predetermined concentration was added using Biomek NX (available from Beckman Coulter Inc.), and the enzyme reaction was started by adding the substrate. The enzyme activity was assessed by measuring the decrease in DCIP absorbance (600 nm) for 50 minutes using an EnVision plate-reading spectrophotometer (available from PerkinElmer, Inc.).
as §1, with “enzyme reaction” for “growth”, “enzyme reaction inhibition” for “growth inhibitory”, “[IC50” for “[GI50”, “Enzyme reaction” for “Growth”
The abbreviations in the table have the following meanings. • A: IC50 value<10 nmol/L • B: 10 nmol/L≤IC50 value<100 nmol/L • C: 100 nmol/L≤IC50 value

T1 sequence (Q02127 31-395): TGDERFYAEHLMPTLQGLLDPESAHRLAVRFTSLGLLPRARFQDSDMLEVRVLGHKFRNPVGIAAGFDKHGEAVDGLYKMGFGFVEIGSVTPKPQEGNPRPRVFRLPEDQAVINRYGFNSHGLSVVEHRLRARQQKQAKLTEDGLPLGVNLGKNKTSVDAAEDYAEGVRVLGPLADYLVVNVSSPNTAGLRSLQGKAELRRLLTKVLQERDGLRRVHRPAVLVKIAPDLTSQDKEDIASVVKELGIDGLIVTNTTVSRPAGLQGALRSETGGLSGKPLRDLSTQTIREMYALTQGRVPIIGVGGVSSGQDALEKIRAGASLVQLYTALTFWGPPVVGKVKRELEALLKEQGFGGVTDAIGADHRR

GI50 [1] [nM]	IC50 (recombinant human DHODH) [nM]	SMILES
100 to 1000	10 to 100	Cc1cnc(Nc2cccc(C3=CCOCC3)c2OCC(F)(F)F)c(C(=O)NS(C)(=O)=O)n1 [Example 3-67]
< 100	< 10	NS(=O)(=O)NC(=O)c1nc(C2CC2)cnc1Nc1cccc(C2=CCOCC2)c1OCC(F)(F)F [Example 3-10]
100 to 1000	10 to 100	N#Cc1ccc(-c2cc(F)cc(Nc3ncc(C4CC4)nc3C(=O)NS(N)(=O)=O)c2OC(F)F)cc1 [Example 3-54]
100 to 1000	10 to 100	CS(=O)(=O)NC(=O)c1nc(C2CC2)cnc1Nc1cc(F)cc(-c2ccc(C#N)cc2)c1OC(F)F [Example 3-55]
100 to 1000	10 to 100	Cc1ccc(-c2cccc(Nc3ncc(C4CC4)nc3C(=O)NS(C)(=O)=O)c2OCC(F)(F)F)c(C)n1 [Example 3-15]
100 to 1000	10 to 100	C[C@H](Oc1c(Nc2ncc(C3CC3)nc2C(=O)NS(C)(=O)=O)cccc1C1CCOCC1)C(F)(F)F [Example 3-13]
< 100	< 10	C[C@H](Oc1c(Nc2ccc(C3CC3)cc2C(=O)O)cncc1C1=CCOCC1)C(F)(F)F [Example 2-6]
100 to 1000	10 to 100	CONC(=O)c1nc(C2CC2)cnc1Nc1cccc(C2CCOCC2)c1O[C@@H](C)C(F)(F)F [Example 3-12]
< 100	< 10	CCOc1ccc(Nc2ncc(C3CC3)nc2C(=O)NS(C)(=O)=O)c(OCC)c1C1=CCOCC1 [Example 3-58]
< 100	< 10	Cc1cc(C#N)ccc1-c1cccc(Nc2ncc(C3CC3)nc2C(=O)O)c1OCC(F)(F)F [Example 1-5, 3-((4′-cyano-2′-methyl-2-(2,2,2-trifluoroethoxy)-[1,1′-biphenyl]-3-yl)amino)-6-cyclopropylpyrazine-2-carboxylic acid]
< 100	< 10	CS(=O)(=O)NC(=O)c1nc(C2CC2)cnc1Nc1cccc(-c2ccc(F)cc2)c1OCC(F)(F)F [Example 3-56]
< 100	< 10	CS(=O)(=O)NC(=O)c1cc(C2CC2)cnc1Nc1cccc(C2CCOCC2)c1OCC(F)(F)F [Example 3-34]
< 100	< 10	N#CNC(=O)c1cc(C2CC2)cnc1Nc1cccc(-c2ccc(C#N)cc2)c1OCC(F)(F)F [Example 3-39]
< 100	< 10	CS(=O)(=O)NC(=O)c1cc(C2CC2)cnc1Nc1cccc(-c2ccc(C#N)cc2)c1OCC(F)(F)F [Example 3-36]
100 to 1000	< 10	CS(=O)(=O)NC(=O)c1cc(C2CC2)ncc1Nc1cccc(C2=CCOCC2)c1OCC(F)(F)F [Example 3-61]
100 to 1000	< 10	N#Cc1ccc(-c2cccc(Nc3ncc(C4CC4)nc3C(=O)O)c2OC(F)F)cc1 [Example 2-11]
< 100	< 10	CCc1c(Nc2ncc(C3CC3)cc2C(=O)O)cccc1C1CCOCC1 [Example 2-10]
< 100	< 10	N#CNC(=O)c1nc(C2CC2)cnc1Nc1cccc(C2=CCOCC2)c1OCC(F)(F)F [Example 3-1]
